Test results reported in patent US6465499B1 (priority 1996, dated 2002).

How the values were obtained:
[1] = tested on: Phytophthora infestans; format: in vivo; details: tomato young plants, protective spray, rate of application 100 g/ha, evaluated 3 days after inoculation; 0% = as control, 100% = no disease

Structure (SMILES) | Efficacy in % [1] [%] | melting point [°C]
Cc1noc(C)c1S(=O)(=O)n1c(=O)oc2c(Cl)cc(Cl)cc21 [Example 3] | 93 | 164 to 166
Cc1noc(C)c1S(=O)(=O)n1c(=O)oc2ccc(Cl)cc21 [Example 4] | 86 | 183 to 187
Cc1noc(C)c1S(=O)(=O)n1c(=O)sc2c([N+](=O)[O-])cc(C(F)(F)F)cc21 [Example 5] | 100 | 129 to 133
Cc1noc(C)c1S(=O)(=O)n1c(=O)sc2c(C(F)(F)F)cc([N+](=O)[O-])cc21 [Example 6] | 93 | 210 to 213
Cc1noc(C)c1S(=O)(=O)n1c(=O)sc2c(C(F)(F)F)cc(C(F)(F)F)cc21 [Example 7] | 93 | 152 to 156
